In ChEMBL document CHEMBL1142083, “Reversible inhibition of mitochondrial protein synthesis during linezolid-related hyperlactatemia” (2007) one finds Activity data, which are given here for one compound.

Experiment [1] deals with PBMC. Put plainly: Decrease in mitochondrial Cytochrome C oxidase 2 protein expression in PBMCs from patient on a long-term schedule of the drug with hyperlactatemia relative to control. Also noted: scale not given: the % may be the effect or the level left. Format: functional, Homo sapiens.
Experiment [2] deals with PBMC. Put plainly: Increase in Cytochrome C oxidase 2 mitochondrial RNA transcripts in PBMCs from patient on a long-term schedule of the drug with hyperlactatemia relative to control. It is filed as functional, Homo sapiens.
Experiment [3] relates to PBMC. Description: Effect on mitochondrial DNA level in PBMCs from patient on a long-term schedule of the drug with hyperlactatemia relative to control. Format: functional, Homo sapiens.
For experiment [4], the system named is PBMC. Put plainly: Effect on mitochondrial mass in PBMCs from patient during hyperlactemic phase by citrate synthase method relative to control. Format: functional, Homo sapiens.
Experiment [5] concerns PBMC. Description: Effect on mitochondrial mass in PBMCs from patient during hyperlactemic phase by V-DAC method relative to control. It is filed as functional, Homo sapiens.
In experiment [6] the test system is PBMC. Description: Decrease in mitochondrial Cytochrome C oxidase activity in PBMCs from patient on a long-term schedule of the drug with hyperlactatemia relative to control. Also noted: scale not given: the % may be the effect or the level left.

On to `CC(=O)NC[C@H]1CN(c2ccc(N3CCOCC3)c(F)c2)C(=O)O1` [LINEZOLID], for which the Activity in experiment [1] is 16%; in experiment [2] it was 297%; in experiment [3], 82%; in experiment [4] it was 59%; in experiment [5], 60%; in experiment [6], 51%.
